This note sets out measurements from ChEMBL document CHEMBL1153448, “Diether derivatives of homo- or substituted piperidines as non-imidazole histamine H3 receptor ligands” (Bioorg Med Chem, 2009).

Broadly, the Ki is the dissociation constant of the complex between target and ligand, obtained from inhibition or displacement. Read a low Ki as higher affinity.

The target of assay [1] is Histamine H3 receptor (Homo sapiens, UniProt Q9Y5N1). The experiment in a line: Displacement of [125I]Iodoproxyfran from human histamine H3 receptor expressed in HEK293 cells. It is filed as cell-based.
Assay [2] addresses Histamine H3 receptor (Rattus norvegicus, UniProt Q9QYN8). In words: Binding affinity to histamine H3 receptor in rat cerebral cortex. It is filed as tissue-based.

Chain of Histamine H3 receptor (Homo sapiens, UniProt Q9Y5N1) (Q9Y5N1 whole entry): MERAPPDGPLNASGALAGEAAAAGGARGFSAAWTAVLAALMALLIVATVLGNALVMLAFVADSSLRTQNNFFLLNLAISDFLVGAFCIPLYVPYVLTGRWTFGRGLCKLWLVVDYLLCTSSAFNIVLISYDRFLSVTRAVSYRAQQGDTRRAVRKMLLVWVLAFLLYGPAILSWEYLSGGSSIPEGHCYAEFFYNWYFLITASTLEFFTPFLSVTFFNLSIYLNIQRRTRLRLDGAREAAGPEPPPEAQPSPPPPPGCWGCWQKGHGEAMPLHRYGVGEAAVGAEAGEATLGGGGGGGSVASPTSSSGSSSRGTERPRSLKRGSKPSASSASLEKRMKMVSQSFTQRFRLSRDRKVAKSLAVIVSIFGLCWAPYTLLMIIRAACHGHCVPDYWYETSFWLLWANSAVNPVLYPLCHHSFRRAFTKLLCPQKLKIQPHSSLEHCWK
Chain of Histamine H3 receptor (Rattus norvegicus, UniProt Q9QYN8) (Q9QYN8 whole entry): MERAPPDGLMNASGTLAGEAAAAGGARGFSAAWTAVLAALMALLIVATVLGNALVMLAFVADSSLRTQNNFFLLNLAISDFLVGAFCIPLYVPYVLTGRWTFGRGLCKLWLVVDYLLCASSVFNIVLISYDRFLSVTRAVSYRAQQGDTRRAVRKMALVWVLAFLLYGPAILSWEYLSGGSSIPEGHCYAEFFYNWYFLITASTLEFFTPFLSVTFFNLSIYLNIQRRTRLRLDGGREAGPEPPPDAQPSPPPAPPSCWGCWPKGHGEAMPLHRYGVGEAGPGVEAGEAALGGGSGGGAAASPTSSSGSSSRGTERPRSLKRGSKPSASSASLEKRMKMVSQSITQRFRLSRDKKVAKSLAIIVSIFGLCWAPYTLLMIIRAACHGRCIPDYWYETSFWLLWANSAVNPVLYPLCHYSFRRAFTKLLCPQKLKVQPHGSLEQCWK

In the case of `CC1CCCN(CCCOCCOc2ccc(C(C)(C)C)cc2)C1` (stereo not drawn), the inhibition constant (Ki) at Histamine H3 receptor [1] is 62 nM. In turn, `COc1cccc(OCCCOCCCN2CCCC(C)C2)c1` (stereo not drawn) had a Ki on Histamine H3 receptor [1] of 27.3 nM. This Ki lies about 2.3-fold lower than the previous one. The same measure, in the same setting: next, `COc1cccc(OCCCOCCCN2CCC(C)CC2)c1`: 49 nM; `CC1CCCN(CCCOCCCOc2ccc(Cl)cc2)C1` (stereo not drawn): 3.2 nM. Still for that read-out and setting: then `COc1cccc(OCCOCCCN2CCCC(C)C2)c1` (stereo not drawn), with 14.8 nM.

On Histamine H3 receptor [1], `CC1CCCN(CCCOCCCOc2ccc(C(C)(C)C)cc2)C1` (stereo not drawn) displayed an inhibition constant Ki of 12.8 nM. This Ki and that of the compound before are within 1.5-fold of each other. The same measure, in the same setting: next, `CC(C)(C)c1ccc(OCCCOCCCN2CCCCCC2)cc1`: 7.7 nM.

Regarding `COc1cccc(OCCOCCCN2CCC(C)CC2)c1`, the Ki on Histamine H3 receptor [1] came to 12.5 nM. Take `Clc1ccc(CCCOCCCN2CCCCC2)cc1` [PITOLISANT]: at Histamine H3 receptor [2], the inhibitory constant (Ki) was 17 nM. At Histamine H3 receptor [1], `COc1cccc(OCCOCCCN2CCCCCC2)c1` came in with an inhibition constant (Ki) of 7.2 nM. In other words, the single-digit nanomolar range. `CC1CCN(CCCOCCCOc2ccc(C(C)(C)C)cc2)CC1` showed a Ki at Histamine H3 receptor [1] of 51 nM. Take `CC1CCN(CCCOCCCOc2ccc(Cl)cc2)CC1`: the affinity on Histamine H3 receptor [1] corresponds to a Ki of 27.9 nM. This Ki is about 1.8-fold lower than that of the compound before. The same measure, in the same setting: then `COc1cccc(OCCCOCCCN2CCCCCC2)c1`, with 18.6 nM.
